Laboratory results as given in patent US20240025886A1, “INHIBITORS OF IGF2BP1-RNA BINDING” (YISSUM RESEARCH DEVELOPMENT COMPANY OF THE HEBREW …, priority 2020, published 2024).
Values joined by “and” are separate entries in the source; they are usually repeats but may differ in a detail not shown here. Identical values can stand only once.

Experiments:
[1] = test system: LKR-M cells transfected with GFP alone; assay: Wound healing assay, LKR-M cells expressing GFP alone; assay type: cell-based, mouse; details: 20 mM 7773 vs DMSO
Description: (§1) Cells were seeded in 96 IncuCyte® ImageLock plates (20×10^3 cells per well) for 24 hours, to a near confluency of 95%, before the addition of increasing concentrations of compound. After a further 24 hours, wells were scratched using the IncuCyte® 96-well WoundMaker Tool, and the cells cultured for an additional 48 hours using the IncuCyte® S3 Live-Cell Analysis System (Essen BioScience). The plate was imaged at increments of 120 minutes for a period of 48 hours, and then analyzed for relative wound healing.

HEK293 cells = assay: Wound healing (cell migration) assay, HEK293 cells; assay type: cell-based, human
Description: as §1

H1299 cells [2] = assay: Growth in soft agar, H1299 cells; assay type: cell-based, human; parameters: dose or concentration left out as unconfirmed; details: H1299, 7773
Description: Cells were grown for 12 hours in 6 well plates prior to incubation with the compound or DMSO for an additional 48 hours, 2000 cells were suspended in 0.3% agar-complete medium and then seeded in triplicates onto a 0.6% agar-complete medium base in a 6 well plate. After one week, the colonies were fed with 0.3% agar-complete medium, and after 2 additional weeks, imaged and quantified.

H1299 cells [3] = assay: Wound healing (cell migration) assay, H1299 cells; assay type: cell-based, human
Description: as §1

Igf2bp1 KH12 di-domain = molecular target: T1, Igf2bp1 KH12 di-domain (Homo sapiens, UniProt Q9NZI8); assay: MST binding to Igf2bp1 di-domain KH12
T1 construct: KH12 (V194-N369); 6xHis/GST (N, cleaved yes); made in house; host or cells: E. coli BL21(DE3)
Description: (§2) Recombinant full-length Igf2bp1 protein was labelled with RED-tris-NTA dye using a Monolith NT His-Tag Labelling Kit (NanoTemper) while RRM12, KH12 and KH34 di-domain peptides were labelled using the Protein Labeling Kit RED NHS 2nd generation (NanoTemper). Labelled proteins were spun at 15,000 g for 5 min to eliminate aggregates. All samples were 2× labelled protein mix of Igf2bp1 (200 nM) in PBST and were combined (1:1) with serial dilutions of compound or Kras6 RNA in binding buffer (10 mMTris pH=7.5, 100 mM NaCl, 0.1 mM EDTA, 0.06% IPEGAL, 0.02 μg/μL tRNA, 2 mM DTT, 0.1 μg/μL heparin) in final volume of 20 μL, room temperature for 15 min. Samples were then loaded into standard capillaries (NanoTemper) and read in the Monolith NT.115 scanner (NanoTemper) using the red filter with reading conditions of 95% LED power and 40% MST power, 5 sec fluorescence before, 30 sec MST on, 5 sec fluorescence after and 25 sec delay between samples. Results were analyzed using the MO Control software (NanoTemper) for curve fitting to KD.

[4] = molecular target: T2, Igf2bp1 binding to Kras 6 RNA (Homo sapiens, UniProt Q9NZI8); assay: Fluorescence polarization (FP) assay of Igf2bp1 binding to fluorescent Kras 6 RNA; details: FP dose response; read-out: IC50 for inhibition of Igf2bp1 binding to Kras 6 RNA
T2 construct: Recombinant full-length Igf2bp1 protein; made in house; host or cells: E. coli BL21(DE3)
Description: For the small molecule screen, compounds were obtained from the collection maintained at the Grand Israel National Center for Personalized Medicine, consisting of molecules purchased from commercial vendors. Labelled RNA (10 nM) was incubated with recombinant Igf2bp1 protein (400 nM) in FAM-RNA buffer (10 mM Tris pH 8.0, 75 mM KCl, 0.5 mM EDTA, 1 mM DTT, 0.0188 U/μL RNAsin, 0.0005 μg/mL heparin, 0.0001 μg/μL tRNA, 0.01% Triton X-100, 3 mM MgCl2, 0.05% IGEPAL) at room temperature for 15 min. […] of this reaction mix was aliquoted with GNF WDII (USA) into wells of 1536 well plates, with a final concentration of […] compound or DMSO. The plates were spun down and read in a BMG Pherastar FS (Germany) plate reader plate reader, in FP mode with a 485/520/520 polarization filter, calibrated to 35 mP for free fluorescein with similar total intensity as experimental samples. […]
To determine the quality of the inventors screening assay, the Z′ factor for each plate was calculated with a Z′ factor greater than 0.5 indicating a robust assay suitable for high throughput screening. Compounds that altered the overall fluorescence intensity compared to controls were considered auto florescence and excluded from further analysis. […] Any small molecule that causes a change of more than three standard deviations from the mean is determined appropriate for further investigation.

La = La (Homo sapiens, UniProt P05455); assay: MST binding to control RNA binding protein La
Igf2bp1 = molecular target: T3, Igf2bp1 (Homo sapiens, UniProt Q9NZI8); assay: Microscale thermophoresis (MST) binding to full-length Igf2bp1; details: full-length protein, unit printed μM
T3 construct: Recombinant full-length Igf2bp1 protein; made in house; host or cells: E. coli BL21(DE3)
Description: as §2

La binding to Bcl2 RNA = La binding to Bcl2 RNA (Homo sapiens, UniProt P05455); assay: FP counter assay, La binding to Bcl2 RNA
Igf2bp2 = molecular target: T4, Igf2bp2 (Homo sapiens, UniProt Q9Y6M1); assay: MST binding to Igf2bp2; details: even at concentrations that almost saturate binding to Igf2bp1
T4 construct: His tag (C); made in house; host or cells: E. coli BL21(DE3)

H1299 cells [5] = assay: Cytotoxicity and cell viability, H1299 cells; assay type: cell-based, human; parameters: Cell viability: dose or concentration left out as unconfirmed

La binding to Bcl2 RNA, sequence (P05455 whole entry): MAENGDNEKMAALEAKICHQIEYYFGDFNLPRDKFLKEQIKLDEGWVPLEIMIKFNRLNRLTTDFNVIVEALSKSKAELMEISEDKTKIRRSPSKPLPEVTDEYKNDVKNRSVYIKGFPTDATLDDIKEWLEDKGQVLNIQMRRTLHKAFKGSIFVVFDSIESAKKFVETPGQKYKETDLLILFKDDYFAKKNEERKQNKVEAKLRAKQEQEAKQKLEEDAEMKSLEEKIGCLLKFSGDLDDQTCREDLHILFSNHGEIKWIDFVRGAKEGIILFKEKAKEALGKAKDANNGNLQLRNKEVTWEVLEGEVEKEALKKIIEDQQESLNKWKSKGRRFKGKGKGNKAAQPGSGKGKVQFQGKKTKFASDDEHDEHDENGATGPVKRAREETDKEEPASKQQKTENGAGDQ
T2 sequence (Q9NZI8 whole entry): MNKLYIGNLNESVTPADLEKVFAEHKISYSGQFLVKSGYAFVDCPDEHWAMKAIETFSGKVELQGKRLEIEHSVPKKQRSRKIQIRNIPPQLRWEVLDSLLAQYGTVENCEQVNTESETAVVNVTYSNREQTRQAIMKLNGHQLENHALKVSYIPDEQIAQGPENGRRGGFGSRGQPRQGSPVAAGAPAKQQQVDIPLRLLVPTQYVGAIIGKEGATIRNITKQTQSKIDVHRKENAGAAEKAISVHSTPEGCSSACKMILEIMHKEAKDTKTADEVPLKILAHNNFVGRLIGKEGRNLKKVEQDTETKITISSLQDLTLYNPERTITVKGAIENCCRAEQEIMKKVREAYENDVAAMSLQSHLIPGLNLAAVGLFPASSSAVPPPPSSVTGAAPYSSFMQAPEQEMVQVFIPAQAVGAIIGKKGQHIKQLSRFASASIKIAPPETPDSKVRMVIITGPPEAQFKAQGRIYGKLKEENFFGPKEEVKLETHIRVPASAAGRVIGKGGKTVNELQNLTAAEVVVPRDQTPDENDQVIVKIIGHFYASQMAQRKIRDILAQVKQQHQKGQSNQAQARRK
T4 sequence (Q9Y6M1 whole entry, species assumed): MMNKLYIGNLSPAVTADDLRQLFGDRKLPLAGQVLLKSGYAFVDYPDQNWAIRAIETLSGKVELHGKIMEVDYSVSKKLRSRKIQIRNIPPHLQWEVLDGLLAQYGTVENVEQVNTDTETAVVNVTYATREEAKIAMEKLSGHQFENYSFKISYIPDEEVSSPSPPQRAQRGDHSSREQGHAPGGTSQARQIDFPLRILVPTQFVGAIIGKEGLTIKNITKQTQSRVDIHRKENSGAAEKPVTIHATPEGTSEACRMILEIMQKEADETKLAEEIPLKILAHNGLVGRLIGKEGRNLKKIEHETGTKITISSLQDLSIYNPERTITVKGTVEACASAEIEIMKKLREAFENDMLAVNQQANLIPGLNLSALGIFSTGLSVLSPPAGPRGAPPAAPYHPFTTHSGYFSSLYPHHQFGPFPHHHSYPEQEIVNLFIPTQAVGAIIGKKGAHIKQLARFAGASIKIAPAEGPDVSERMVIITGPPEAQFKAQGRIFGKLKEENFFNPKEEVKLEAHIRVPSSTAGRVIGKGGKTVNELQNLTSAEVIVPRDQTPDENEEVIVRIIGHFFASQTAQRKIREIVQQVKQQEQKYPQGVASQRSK
T1 sequence (Q9NZI8 194-369): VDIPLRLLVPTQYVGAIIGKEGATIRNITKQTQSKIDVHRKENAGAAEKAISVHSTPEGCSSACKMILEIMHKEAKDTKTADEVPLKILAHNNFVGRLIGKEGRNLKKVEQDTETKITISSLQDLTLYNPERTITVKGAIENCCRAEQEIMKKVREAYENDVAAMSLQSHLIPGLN
La, sequence (P05455 whole entry): as the sequence (P05455 whole entry) above
T3 sequence (Q9NZI8 whole entry): as the sequence (Q9NZI8 whole entry) above

Binding to KH12 (MST) (Igf2bp1 KH12 di-domain): no binding
IC50 [4]: ~30 µM and 15 to 36 µM
Binding to La (MST) (La): no binding
Kd (Igf2bp1): 17 µM
Effect on control RBP (La) binding to its target (Bcl2 RNA) (La binding to Bcl2 RNA; FP): almost no effect
IC50 (La binding to Bcl2 RNA; FP control, n=3, read-out: IC50 for inhibition of La binding to Bcl2 RNA): > 100 µM
Binding to Igf2bp2 (MST) (Igf2bp2): did not significantly bind
Compound: O=C(c1ccc(Cn2cnnn2)cc1)N1CCCC(Nc2ccc3c(c2)OCO3)C1 (stereo not drawn) [Compound 7773]
Effect on migration of cells expressing GFP alone [1]: unaffected
Inhibition of wound healing (HEK293 cells; HEK293, 5 mM 7773): discernible inhibition
Inhibition of wound healing (HEK293 cells; HEK293, 20 mM 7773): strongly inhibited
Ability to form colonies in soft agar (H1299 cells [2]): dramatically inhibited
Inhibition of wound healing (H1299 cells [3]; H1299, 5 mM 7773): discernible inhibition
Inhibition of wound healing (H1299 cells [3]; H1299, 20 mM 7773): strongly inhibited
Cytotoxicity (H1299 cells [5]; H1299, 20, 10 or 5 mM 7773, 48 hours): virtually no effect
Cell viability (H1299 cells [5]; H1299, 7773, 48 hours): does not affect
